Data as given in ChEMBL document CHEMBL5625170, “Design, synthesis, and biological evaluation of novel penindolone derivatives as potential inhibitors of hemagglutinin-mediated membrane fusion” (Eur J Med Chem, 2023).

Experiments:
[1] = Cytotoxicity against dog MDCK cells assessed as cell viability measured after 48 hrs by MTT assay; type: toxicity, cell-based, Canis lupus familiaris
[2] = Selectivity index, ratio of CC50 for cytotoxicity against dog MDCK cells to IC50 for anti-viral activity against Influenza A virus (A/Puerto Rico/8/34 infected in MDCK cells; type: toxicity, cell-based; conditions: read-out: Selectivity Index

| SMILES | CC50 at 48 h [1] [µM] | selectivity ratio [2] |
| --- | --- | --- |
| CC(=O)c1cc(C)c(O)c(Cc2[nH]c3cc(-c4cccc(F)c4)ccc3c2Cc2c(O)c(C)cc(C(C)=O)c2O)c1O | > 300 |  |
| COc1ccc2[nH]c(Cc3c(O)c(C)cc(C(C)=O)c3O)c(Cc3c(O)c(C)cc(C(C)=O)c3O)c2c1 | > 300 | > 18.9 |
| CC(=O)c1cc(C)c(O)c(Cc2[nH]c3cc(-c4ccccc4)ccc3c2Cc2c(O)c(C)cc(C(C)=O)c2O)c1O | > 300 | > 12.8 |
| CC(=O)c1cc(C)c(O)c(Cc2[nH]c3cc(-c4ccc5c(c4)CCO5)ccc3c2Cc2c(O)c(C)cc(C(C)=O)c2O)c1O | > 300 |  |
| COc1ccc(-c2ccc3[nH]c(Cc4c(O)c(C)cc(C(C)=O)c4O)c(Cc4c(O)c(C)cc(C(C)=O)c4O)c3c2)cc1 | > 300 | > 18.4 |
| COc1ccc(-c2ccc3c(Cc4c(O)c(C)cc(C(C)=O)c4O)c(Cc4c(O)c(C)cc(C(C)=O)c4O)[nH]c3c2)cc1 | > 300 | > 34.5 |
| CC(=O)c1cc(C)c(O)c(Cc2[nH]c3ccc(-c4cc(C)cc(C)c4)cc3c2Cc2c(O)c(C)cc(C(C)=O)c2O)c1O | > 300 | > 22.2 |
| CC(=O)c1cc(C)c(O)c(Cc2[nH]c3cc(-c4ccc(Cl)cc4)ccc3c2Cc2c(O)c(C)cc(C(C)=O)c2O)c1O | > 300 |  |
| CC(=O)c1cc(C)c(O)c(Cc2[nH]c3cc(-c4ccccc4F)ccc3c2Cc2c(O)c(C)cc(C(C)=O)c2O)c1O | > 300 |  |
| COc1ccc2c(Cc3c(O)c(C)cc(C(C)=O)c3O)c(Cc3c(O)c(C)cc(C(C)=O)c3O)[nH]c2c1 | > 300 | > 23.8 |
| CC(=O)c1cc(C)c(O)c(Cc2[nH]c3cc(-c4cccc(O)c4)ccc3c2Cc2c(O)c(C)cc(C(C)=O)c2O)c1O | 126 |  |
| CC(=O)c1cc(C)c(O)c(Cc2[nH]c3cc(-c4ccc5ccccc5c4)ccc3c2Cc2c(O)c(C)cc(C(C)=O)c2O)c1O | > 300 | > 11.5 |
| CC(=O)c1cc(C)c(O)c(Cc2[nH]c3cc(-c4csc5ccccc45)ccc3c2Cc2c(O)c(C)cc(C(C)=O)c2O)c1O | > 300 | > 14.4 |
| CC(=O)c1cc(C)c(O)c(Cc2[nH]c3ccc(-c4ccsc4)cc3c2Cc2c(O)c(C)cc(C(C)=O)c2O)c1O | > 300 |  |
| CC(=O)c1cc(C)c(O)c(Cc2[nH]c3ccc(-c4ccc5ccccc5c4)cc3c2Cc2c(O)c(C)cc(C(C)=O)c2O)c1O | > 300 | > 14.5 |
| CC(=O)c1cc(C)c(O)c(Cc2[nH]c3ccc(-c4cccc(O)c4)cc3c2Cc2c(O)c(C)cc(C(C)=O)c2O)c1O | 152 |  |
| CC(=O)c1cc(C)c(O)c(Cc2[nH]c3cc(-c4cc(C(C)(C)C)cc(C(C)(C)C)c4)ccc3c2Cc2c(O)c(C)cc(C(C)=O)c2O)c1O | 280 | 10.4 |
| COc1ccc(-c2ccc3c(Cc4c(O)c(C)cc(C(C)=O)c4O)c(Cc4c(O)c(C)cc(C(C)=O)c4O)[nH]c3c2)cc1OC | 240 | 12.2 |
| COc1ccc2cc(-c3ccc4c(Cc5c(O)c(C)cc(C(C)=O)c5O)c(Cc5c(O)c(C)cc(C(C)=O)c5O)[nH]c4c3)ccc2c1 | > 300 | > 12.9 |
| CC(=O)c1cc(C)c(O)c(Cc2[nH]c3ccc(Cl)cc3c2Cc2c(O)c(C)cc(C(C)=O)c2O)c1O | > 300 |  |
| CC(=O)c1cc(C)c(O)c(Cc2[nH]c3ccc(C)cc3c2Cc2c(O)c(C)cc(C(C)=O)c2O)c1O | > 300 | > 14.6 |

| SMILES | CC50 at 48 h [1] [µM] | selectivity ratio [2] |
| --- | --- | --- |
| CC(=O)c1cc(C)c(O)c(Cc2[nH]c3cc(-c4cc(C(F)(F)F)cc(C(F)(F)F)c4)ccc3c2Cc2c(O)c(C)cc(C(C)=O)c2O)c1O | > 300 |  |
| CC(=O)c1cc(C)c(O)c(Cc2[nH]c3ccc(F)cc3c2Cc2c(O)c(C)cc(C(C)=O)c2O)c1O | 281 |  |
| CC(=O)c1cc(C)c(O)c(Cc2[nH]c3ccc(-c4cc(C(C)(C)C)cc(C(C)(C)C)c4)cc3c2Cc2c(O)c(C)cc(C(C)=O)c2O)c1O | > 300 |  |
| CSc1ccc(-c2ccc3c(Cc4c(O)c(C)cc(C(C)=O)c4O)c(Cc4c(O)c(C)cc(C(C)=O)c4O)[nH]c3c2)cc1 | > 300 | > 33 |
| COc1cc(-c2ccc3c(Cc4c(O)c(C)cc(C(C)=O)c4O)c(Cc4c(O)c(C)cc(C(C)=O)c4O)[nH]c3c2)cc(OC)c1OC | > 300 | > 14.9 |
| CC(=O)c1cc(C)c(O)c(Cc2c(Cc3c(O)c(C)cc(C(C)=O)c3O)n(Cc3ccccc3)c3ccccc23)c1O | > 300 |  |
| COc1ccc(-c2ccc3[nH]c(Cc4c(O)c(C)cc(C(C)=O)c4O)c(Cc4c(O)c(C)cc(C(C)=O)c4O)c3c2)cc1OC | > 300 | > 16.6 |
| CSc1ccc(-c2ccc3[nH]c(Cc4c(O)c(C)cc(C(C)=O)c4O)c(Cc4c(O)c(C)cc(C(C)=O)c4O)c3c2)cc1 | > 300 | > 17.1 |
| CC(=O)c1cc(C)c(O)c(Cc2[nH]c3ccc(-c4ccc5c(c4)OCCO5)cc3c2Cc2c(O)c(C)cc(C(C)=O)c2O)c1O | > 300 | > 23.1 |
| CC(=O)c1cc(C)c(O)c(Cc2[nH]c3ccc(-c4ccc(F)cc4)cc3c2Cc2c(O)c(C)cc(C(C)=O)c2O)c1O | 212 |  |
| COc1cccc(OC)c1-c1ccc2c(Cc3c(O)c(C)cc(C(C)=O)c3O)c(Cc3c(O)c(C)cc(C(C)=O)c3O)[nH]c2c1 | > 300 | > 15.4 |
| COc1ccc(Cn2c(Cc3c(O)c(C)cc(C(C)=O)c3O)c(Cc3c(O)c(C)cc(C(C)=O)c3O)c3ccccc32)cc1 | > 300 |  |
| CC(=O)c1cc(C)c(O)c(Cc2[nH]c3cc(-c4ccc(C)cc4)ccc3c2Cc2c(O)c(C)cc(C(C)=O)c2O)c1O | > 300 | > 12.4 |
| CC(=O)c1cc(C)c(O)c(Cc2[nH]c3ccc(-c4ccccc4F)cc3c2Cc2c(O)c(C)cc(C(C)=O)c2O)c1O | > 300 |  |
| CC(=O)c1cc(C)c(O)c(Cc2[nH]c3ccc(Br)cc3c2Cc2c(O)c(C)cc(C(C)=O)c2O)c1O | 233 | 9.2 |
| CC(=O)c1cc(C)c(O)c(Cc2[nH]c3cc(-c4ccc(C(F)(F)F)cc4)ccc3c2Cc2c(O)c(C)cc(C(C)=O)c2O)c1O | > 300 | > 12 |
| CC(=O)c1cc(C)c(O)c(Cc2[nH]c3cc(/C=C/c4ccccc4)ccc3c2Cc2c(O)c(C)cc(C(C)=O)c2O)c1O | > 300 |  |
| CC(=O)c1cc(C)c(O)c(Cc2[nH]c3cc(-c4ccc(F)cc4)ccc3c2Cc2c(O)c(C)cc(C(C)=O)c2O)c1O | 256 | 13.4 |
| CC(=O)c1cc(C)c(O)c(Cc2c(Cc3c(O)c(C)cc(C(C)=O)c3O)n(Cc3ccc(F)cc3)c3ccccc23)c1O | > 300 |  |
| CC(=O)c1cc(C)c(O)c(Cc2[nH]c3cc(-c4ccc5cccnc5c4)ccc3c2Cc2c(O)c(C)cc(C(C)=O)c2O)c1O | > 300 |  |
| CC(=O)c1cc(C)c(O)c(Cc2[nH]c3cc(-c4cc(C)cc(C)c4)ccc3c2Cc2c(O)c(C)cc(C(C)=O)c2O)c1O | > 300 | > 29.7 |

| SMILES | CC50 at 48 h [1] [µM] | selectivity ratio [2] |
| --- | --- | --- |
| CC(=O)c1cc(C)c(O)c(Cc2c(Cc3c(O)c(C)cc(C(C)=O)c3O)n(Cc3ccc(Cl)cc3)c3ccccc23)c1O | > 300 |  |
| CC(=O)c1cc(C)c(O)c(Cc2[nH]c3cc(-c4ccsc4)ccc3c2Cc2c(O)c(C)cc(C(C)=O)c2O)c1O | > 300 |  |
| CC(=O)c1cc(C)c(O)c(Cc2[nH]c3ccc(/C=C/c4ccccc4)cc3c2Cc2c(O)c(C)cc(C(C)=O)c2O)c1O | > 300 |  |
| CC(=O)c1cc(C)c(O)c(Cc2[nH]c3ccc(-c4c5ccccc5c(-c5ccccc5)c5ccccc45)cc3c2Cc2c(O)c(C)cc(C(C)=O)c2O)c1O | > 300 |  |
| CC(=O)c1cc(C)c(O)c(Cc2[nH]c3ccc(-c4cc(C(F)(F)F)cc(C(F)(F)F)c4)cc3c2Cc2c(O)c(C)cc(C(C)=O)c2O)c1O | > 300 |  |
| CC(=O)c1cc(C)c(O)c(Cc2[nH]c3ccc(-c4ccc(Cl)cc4)cc3c2Cc2c(O)c(C)cc(C(C)=O)c2O)c1O | > 300 | > 11.1 |
| CC(=O)c1cc(C)c(O)c(Cc2[nH]c3cc(-c4ccc5c(c4)OCCO5)ccc3c2Cc2c(O)c(C)cc(C(C)=O)c2O)c1O | > 300 | > 15.5 |
| CC(=O)c1cc(C)c(O)c(Cc2[nH]c3cc(-c4c5ccccc5cc5ccccc45)ccc3c2Cc2c(O)c(C)cc(C(C)=O)c2O)c1O | > 300 | > 36.1 |
| CC(=O)c1cc(C)c(O)c(Cc2[nH]c3ccc(-c4ccc(C(F)(F)F)cc4)cc3c2Cc2c(O)c(C)cc(C(C)=O)c2O)c1O | > 300 | > 13.7 |
| CC(=O)c1cc(C)c(O)c(Cc2[nH]c3cc(C)ccc3c2Cc2c(O)c(C)cc(C(C)=O)c2O)c1O | > 300 | > 19.9 |
| C=CCn1c(Cc2c(O)c(C)cc(C(C)=O)c2O)c(Cc2c(O)c(C)cc(C(C)=O)c2O)c2ccccc21 | > 300 |  |
| CC(=O)c1cc(C)c(O)c(Cc2[nH]c3ccc(-c4csc5ccccc45)cc3c2Cc2c(O)c(C)cc(C(C)=O)c2O)c1O | > 300 | > 12.8 |
| COc1cccc(OC)c1-c1ccc2[nH]c(Cc3c(O)c(C)cc(C(C)=O)c3O)c(Cc3c(O)c(C)cc(C(C)=O)c3O)c2c1 | 271 | 12.9 |
| CC(=O)c1cc(C)c(O)c(Cc2[nH]c3ccc(-c4ccccc4)cc3c2Cc2c(O)c(C)cc(C(C)=O)c2O)c1O | > 300 | > 11.5 |
| CC(=O)c1cc(C)c(O)c(Cc2[nH]c3cc(-c4c5ccccc5c(-c5ccccc5)c5ccccc45)ccc3c2Cc2c(O)c(C)cc(C(C)=O)c2O)c1O | > 300 |  |
| CC(=O)c1cc(C)c(O)c(Cc2[nH]c3ccc(-c4cccc(F)c4)cc3c2Cc2c(O)c(C)cc(C(C)=O)c2O)c1O | > 300 |  |
| COc1cc(-c2ccc3[nH]c(Cc4c(O)c(C)cc(C(C)=O)c4O)c(Cc4c(O)c(C)cc(C(C)=O)c4O)c3c2)cc(OC)c1OC | > 300 | > 37.5 |
| CC(=O)c1cc(C)c(O)c(Cc2[nH]c3ccc(-c4ccc(C)cc4)cc3c2Cc2c(O)c(C)cc(C(C)=O)c2O)c1O | > 300 | > 19.4 |
| CC(=O)c1cc(C)c(O)c(Cc2c(Cc3c(O)c(C)cc(C(C)=O)c3O)n(N)c3ccccc23)c1O | > 300 |  |
| CC(=O)c1cc(C)c(O)c(Cc2[nH]c3ccc(-c4ccc5c(c4)CCO5)cc3c2Cc2c(O)c(C)cc(C(C)=O)c2O)c1O | > 300 |  |
